Consider 3 substances from article PMC7385626 (Scientific Reports, 2020).

The test system of one assay is P. aeruginosa ATCC9027. As to the kind of experiment: Disc diffusion assay. The class given is cell-based, Pseudomonas Aureginosa. The procedure: (§1) Therefore, the pathogen bacterial flora and the opportunistic agents may be taken into consideration both in the management of cancer patients and in individual susceptibility to cancer. Indeed, dual acting factors with antimicrobial and antiproliferative potentials can result in improved therapeutic efficacy for cancer cell patients or reduced cancer predisposition. […]. In this study, 10 microbial cultures of this part, belonging to ten types of bacterial were used. The culture was grown in Mueller–Hinton Broth (Merck) for all the bacterial strains at 36 °C. Antimicrobial test was carried out by using disc-diffusion assay utilizing 100 µL of suspension with 10^8 CFU/mL of bacteria and 10^6 CFU/mL of yeast spread on Nutrient Agar and Potato Dextrose Agar, respectively. Also, the blank disc (Oxoid = 6 mm in diameter) was impregnated with 20 µL of each substance (105 µg/disc) and placed on the inoculated agar. Negative controls ([…]) were prepared using the same solvent (water) employed to dissolve each substance. […]. The inoculated plate was incubated at 36 °C for clinical bacterial strains. Antimicrobial activities were evaluated by obtaining the zone of inhibitory effect against the test organisms.
For orientation: Agar diffusion results depend on both activity and mobility in agar.

The next assay deals with S. aureus ATCC29213. As to the kind of experiment: Disc diffusion assay. Format: cell-based, Staphylococcus aureus. The protocol: as §1
The next assay deals with St. pyogenez ATCC176. As to the kind of experiment: Disc diffusion assay. Format: cell-based, Steptococcus Pyogerez. The procedure: as §1
For another assay, the system named is CT-DNA. As to the kind of experiment: Ethidium bromide exchange (fluorescence quenching) study. The class given is binding, calf. The protocol: Fig. S13. The emission spectra of EB-bound (a) DNA solutions in the absence and presence of increasing concentrations of 2, 3, and 4 25 μM (b), 50 μM (c), and 75 μM (d). [EB]=10.0 μM (e), [DNA] 50.0 μM. […] (µM) for determining KSV.

The next assay deals with HeLa cells. As to the kind of experiment: Cell migration assay. The class given is cell-based. The source says: Ag(I) compounds at 30% maximal inhibitory concentration (IC30) managed to inhibit tumor cell migration with low cytotoxicity (data not shown). In addition, this cytotoxic ability of Ag(I) compounds at 20% maximal inhibitory concentration (IC20) allowed the suppression of cell migration without damaging the cell membrane at non-toxic concentrations (data not shown). […] While untreated HeLa cells filled 100% of the gap, compounds 2, 3, and 4 managed to spread to 9%, %11, 15% of the gap, respectively (Figure S16; Supplementary Material, Day 2). In addition, the media with Ag(I) compounds were replaced with fresh media following the 72-h incubation, but the HeLa cells could not fill the gap (data not shown). […]. The result was consistent with that of the other studies on Ag(I) complexes containing different ligands[73],[74],[78],[80],[81],[83]–[87].
The migration feature of the 2, 3 and 4 was monitored using the cell migration method. Briefly, an equal number of HeLa cells (3.5 × 10^4 HeLa cells) were seeded into the two reservoirs separated by a 500 µm thick wall and allowed to grow to 90–95 % confluence. […]. The closure of the gap by the cells was photographed 0, 1 and 2 days after incubation by using a phase contrast inverted microscope.
Fig. S16. Effect of 2, 3 and 4 on the migration of HeLa cell line. […]

A further assay deals with E. aerogenes 2924. As to the kind of experiment: Disc diffusion assay. Format: cell-based, Enterobacter Aerogenes. The procedure:
as §1

The next assay has as its system HT29 cells. Briefly: TUNEL assay. Format: cell-based, human. The procedure:
[…]. We have evaluated the apoptotic effect of the molecules on HT29 cells utilizing the TUNEL method as an immunohistological study to reveal their mechanism of action on cells. The apoptotic activity of the Ag(I) compounds was examined in human colon cancer cells, HT29. […]. […] […].
Figure 8 Phase-contrast and Fluorescence and image of the HT29 cancer cell line examined by TUNEL assay. […].
In situ finding of apoptosis was conducted utilizing a TUNEL method kit conforming to the manufacturer’s mechanism. HT29 cells (30.000 cells/chamber slide section) were conveyed in poly-L-lysine covered chamber slide. […]. Finally, slide was gently washed with cold DPBS and added 4 % paraformaldehyde for fixation for 60 min at room temperature. Following incubation, the cells were blocked with freshly prepared 3 % H2O2 in methanol at room temperature. Then, the cells were exposed to permeabilized solution (0.1 % sodium citrate and 0.1 % Triton X-100) for 2 minutes on ice. At this stage in order to prepare a DNase I enzyme treated as positive control, 10 μl of DNase-I and 90 μl its buffer was added to slide and incubated at room temperature for 10 minutes. The compotent cell was transferred into TUNEL reaction mixture (50 μL/section) involving a TdT and fluorescein-dUTP mix for 1 h at 37 °C, in a humidified phase and protected from light. In the end of the process, the positive cell nuclei obtained a green fluorescent signal which visualized by a Leica fluorescent microscope.

Another assay deals with S. gallinarum. As to the kind of experiment: Disc diffusion assay. Format: cell-based, Salmonella Gallinarum. The protocol: as §1
In a further assay the test system is KpnI and BamHI. Briefly: Inhibition of restriction endonucleases activity (pTOLT plasmid digestion). Format: biochemical. The procedure:
Fig. S12. […] Following 4 h 37°C digestion of the 14µL with 10U KpnI and BamHI, these digestion products were resolved with 1.5% agarose gel containing ethidium bromide. Lane 1: enzyme + DNA + complex 4, Lane 2: enzyme + DNA + complex 3, Lane 3: enzyme + DNA + complex 2, Lane 4: Positive control (enzyme + DNA), Lane 5: Negative control (plasmid DNA + water); lane 6: DNA marker (1Kb).

For a further assay, the system named is B. subtilis ATCC6633. As to the kind of experiment: Disc diffusion assay. Format: cell-based, Bacillus Subtilis. The protocol:
as §1

The test system of another assay is S. enteridis ATCC13076. As to the kind of experiment: Disc diffusion assay. The class given is cell-based, Salmonella Enteritidis. The procedure: as §1

Regarding [Zn(N-bishydeten)Ag3(CN)5] [Complex 3], the “inhibition zones, P. aeruginosa ATCC9027” value in the assay on P. aeruginosa ATCC9027 is reported as 30 ± 1.0 mm. Also, the “inhibition zones, S. aureus ATCC29213” value in the assay on S. aureus ATCC29213 turned out to be 25 ± 0.58 mm. Besides, the “inhibition zones, St. pyogenez ATCC176” value in the assay on St. pyogenez ATCC176 came out at 29 ± 0.58 mm. In addition, in the assay on CT-DNA, the “KSV (Stern–Volmer quenching constant, EB-DNA)” value (“KSV” below) is listed as 13.7 ± 0.41 × 10^3 M^−1. Further, the “part of the gap filled by HeLa cells (migration)” value (shortened to “part of the gap filled”) in the assay on HeLa cells is given as 11%. Also, the “inhibition zones, E. aerogenes 2924” value in the assay with E. aerogenes 2924 is 20 ± 1.0 mm. Also, the “apoptosis by TUNEL” value in the assay on HT29 cells is “significantly triggered apoptosis”. Moreover, in the assay with S. gallinarum, the “inhibition zones, S. gallinarum” value is 35 ± 0.58 mm. For the same substance, in the assay with KpnI and BamHI, the “effect on restriction endonucleases activity (KpnI and BamHI digestion of pTOLT plasmid DNA)” value (“effect” below) is “failed to inhibit the restriction endonucleases activity”. In addition, in the assay on B. subtilis ATCC6633, the “inhibition zones, B. subtilis ATCC6633” value was determined as 31 ± 1.0 mm. The “inhibition zones, S. enteridis ATCC13076” value in the assay on S. enteridis ATCC13076 is recorded as 33 ± 0.58 mm.
For [Cu(N-bishydeten)Ag3(CN)5] [Complex 2], in the assay on P. aeruginosa ATCC9027, the “inhibition zones, P. aeruginosa ATCC9027” value came to 30 ± 1.0 mm. In addition, the “inhibition zones, S. aureus ATCC29213” value in the assay with S. aureus ATCC29213 is recorded as 37 ± 1.0 mm. In addition, the “inhibition zones, St. pyogenez ATCC176” value in the assay with St. pyogenez ATCC176 is 32 ± 0.58 mm. Moreover, the “KSV” value in the assay with CT-DNA was 5.0 ± 0.32 × 10^3 M^−1. In the assay with HeLa cells, the “part of the gap filled” value is reported as 9%. Also, in the assay with E. aerogenes 2924, the “inhibition zones, E. aerogenes 2924” value turned out to be 22 ± 1.0 mm. In the assay with HT29 cells, the “apoptosis by TUNEL” value is given as “significantly triggered apoptosis”. Also, in the assay with S. gallinarum, the “inhibition zones, S. gallinarum” value turned out to be 35 ± 1.0 mm. Moreover, the “effect” value with KpnI and BamHI is “caused the formation of two DNA bands (Lane 3) corresponding to the supercoiled and nicked DNA”. Moreover, in the assay with B. subtilis ATCC6633, the “inhibition zones, B. subtilis ATCC6633” value was determined as 27 ± 0.58 mm. The “inhibition zones, S. enteridis ATCC13076” value in the assay with S. enteridis ATCC13076 stood at 30 ± 0.58 mm.
On to “[Cd(N-bishydeten)]4[Ag(CN)2]8[Ag(CN)]2 [Complex 4]”, for which the “inhibition zones, P. aeruginosa ATCC9027” value in the assay on P. aeruginosa ATCC9027 is reported as 30 ± 0.58 mm. The “inhibition zones, S. aureus ATCC29213” value in the assay on S. aureus ATCC29213 is on record as 30 ± 1.0 mm. Besides, in the assay with St. pyogenez ATCC176, the “inhibition zones, St. pyogenez ATCC176” value is reported as 26 ± 0.0 mm. Also, the “KSV” value in the assay on CT-DNA is on record as 1.1 ± 0.12 × 10^3 M^−1. Further, in the assay with HeLa cells, the “part of the gap filled” value was 15%. The “inhibition zones, E. aerogenes 2924” value in the assay with E. aerogenes 2924 worked out at 25 ± 1.0 mm. Besides, the “apoptosis by TUNEL” value with HT29 cells was “significantly triggered apoptosis”. Also, the “inhibition zones, S. gallinarum” value in the assay on S. gallinarum is 37 ± 1.0 mm. In the assay on KpnI and BamHI, the “effect” value is “failed to inhibit the restriction endonucleases activity”. For the same substance, in the assay on B. subtilis ATCC6633, the “inhibition zones, B. subtilis ATCC6633” value was 34 ± 0.58 mm. In addition, in the assay with S. enteridis ATCC13076, the “inhibition zones, S. enteridis ATCC13076” value was 36 ± 1.0 mm.
